# Measured values: patent publication US20180028712A1, “SKIN-REGENERATING MATERIAL COMPRISING SYNERGISTIC COMBINATION OF METAL OXIDES” (ARGAMAN TECHNOLOGIES LTD., priority 2015, published 2018)
# What was measured:
# HFF cell line = assay: Proliferation assay (Stage II), Alamar Blue viability of HFF cells
# Experimental: (§1) For the treatments, the saturated solutions were diluted 1:10, 1:100, and 1:500 in the growth medium in a supernatant.
# HFF cells were thawed and passaged at least once prior to assay performance. Exponentially growing culture was collected, centrifuged, counted and seeded in 96-well tissue culture plate at a density of 5000 cells/well.
# The plate was incubated overnight at 37° C., humidified 5% CO2/air., to enable cells adherence to the wells.
# The next day, the growth medium was replaced with the test item solutions in 5% and 1% FBS and vehicle control solution to achieve the final concentrations as designated in the following plate plan (final volume of 200 μl)
# Plates were incubated for 24 hours at 37° C., humidified 5% CO2/air.
# Following 24 hours, the medium was replaced with fresh growth medium containing 10% of Alamar Blue.
# [1] = test system: Human Foreskin Fibroblasts (HFF); settings: 24 hours following the plate scratching
# Experimental: as §1
# HFF cells were thawed and passaged at least once prior to assay performance.
smiles,measurement,setting,value
"[Ag+].[Ag+].[Ag+].[Ag+].[O-2].[O-2].[O-2].[O-2] [TST, tetrasilver tetroxide]",cell proliferation / cytotoxicity result in words,"HFF cell line; HFF cells, 24 hours, summary of Table 1",cytotoxic
same,Number of cells (normalized),"HFF cell line; percent viability on HFF cell line, 24 hours incubation and 4 hours with Alamar Blue, control = 100",85
same,observation of scratched monolayer (proliferation along the scratch),"[1]; diluted 1:100, compared to control group",many proliferation centers along the scratch
same,observation of scratched monolayer (cytotoxicity),[1]; saturated solution diluted 1:10,cytotoxic
